The test system of assay [1] is p-IKKα levels in L363 (NIK translocated multiple myeloma) cells. Put plainly: Effect of compounds on p-IKKα levels in L363 cells (AlphaLISA SureFire Ultra). The assay is classed as cell-based. Conditions: Homo sapiens, L-363; L363 cells, BAFF stimulated, MG132, 6 h; average of values; read-out: Assay 2 IC50. A digest of the protocol:
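L363 myeloma cells were BAFF-stimulated (250 ng/ml) overnight in DMEM/0.5% BSA, then exposed 6 h at 37° C to compound (11-point 1:3 series, 0.3% DMSO) with BAFF plus 10 uM MG132. p-IKKα (Ser 176/180) was read by AlphaLISA SureFire Ultra in lysates. IC50 came from sigmoidal fits normalized to stimulated and unstimulated controls.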

Assay [2] has as its target Recombinant Human NF-Kappab-Inducing Kinase (NIK/MAP3K14) (Homo sapiens, UniProt Q99558). Put plainly: Inhibition of auto-phosphorylation of recombinant human NIK/MAP3K14 (AlphaScreen). Format: biochemical. Conditions: NIK/MAP3K14 auto-phosphorylation, 5 microM ATP, 1 nM enzyme, 2 h at 25° C.; average of values; read-out: Assay 1 IC50. The method in brief:
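GST-tagged NIK (1 nM) auto-phosphorylation with 5 µM ATP in Tris pH 7.5/MgCl2 buffer, 0.7% DMSO, 2 h at 25 °C. Phospho-IKK Ser176/180 antibody detected by AlphaScreen beads. Signal normalized to full-enzyme and no-ATP controls; IC50 from sigmoidal fit of % inhibition vs log concentration.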
A general note: Bead proximity is the source of the signal in Alpha formats.

Chain of Recombinant Human NF-Kappab-Inducing Kinase (NIK/MAP3K14) (Q99558 whole entry): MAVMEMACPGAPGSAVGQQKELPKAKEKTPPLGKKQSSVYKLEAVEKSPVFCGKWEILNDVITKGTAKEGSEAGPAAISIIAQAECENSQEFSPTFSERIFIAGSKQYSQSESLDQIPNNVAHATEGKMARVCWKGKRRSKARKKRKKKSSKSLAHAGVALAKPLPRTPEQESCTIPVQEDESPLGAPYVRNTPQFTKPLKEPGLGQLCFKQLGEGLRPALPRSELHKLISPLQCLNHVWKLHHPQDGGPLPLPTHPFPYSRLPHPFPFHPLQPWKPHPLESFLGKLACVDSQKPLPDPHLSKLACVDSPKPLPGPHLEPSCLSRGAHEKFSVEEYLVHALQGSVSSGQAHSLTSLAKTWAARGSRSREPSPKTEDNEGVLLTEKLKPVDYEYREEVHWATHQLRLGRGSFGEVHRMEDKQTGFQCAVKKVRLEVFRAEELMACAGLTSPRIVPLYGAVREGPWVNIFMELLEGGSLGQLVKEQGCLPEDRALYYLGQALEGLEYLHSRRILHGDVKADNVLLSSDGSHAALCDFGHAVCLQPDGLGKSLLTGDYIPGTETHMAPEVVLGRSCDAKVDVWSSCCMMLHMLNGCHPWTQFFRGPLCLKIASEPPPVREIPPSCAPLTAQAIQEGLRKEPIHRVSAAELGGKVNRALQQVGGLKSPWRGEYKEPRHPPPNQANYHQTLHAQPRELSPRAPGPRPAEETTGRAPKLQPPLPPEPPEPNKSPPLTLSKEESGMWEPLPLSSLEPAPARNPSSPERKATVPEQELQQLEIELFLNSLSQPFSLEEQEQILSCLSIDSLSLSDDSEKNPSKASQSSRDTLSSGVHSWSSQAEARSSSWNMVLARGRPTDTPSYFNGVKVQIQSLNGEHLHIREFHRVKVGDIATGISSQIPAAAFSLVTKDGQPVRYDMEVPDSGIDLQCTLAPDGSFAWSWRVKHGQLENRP

The IC50 is the point on the concentration scale where inhibition reaches its midpoint. Turning to `COc1cc(-c2cc(-c3cc([C@]4(O)CCN(C)C4=O)on3)c(F)cc2F)nc2c(N)ncnc12` [Example 113, (R)-3-(3-(5-(4-Amino-8-methoxypyrido[3,2-d]pyrimidin-6-yl)-2,4-difluorophenyl)isoxazol-5-yl)-3-hydroxy-1-methylpyrrolidin-2-one], the results for the IC50 in assay [1] and in assay [2] were more than 0.501 µM and less than 0.1 µM, respectively.

`CN1CC[C@@](O)(c2cc(-c3cccc(-c4cn(C)c(C(N)=O)n4)c3)no2)C1=O` [Example 114, (R)-4-(3-(5-(3-Hydroxy-1-methyl-2-oxopyrrolidin-3-yl)isoxazol-3-yl)phenyl)-1-methyl-1H-imidazole-2-carboxamide]: the IC50 in assay [1] was more than 0.501 µM; in assay [2], less than 0.1 µM.

Consider `COc1cc(-c2cc(-c3cc([C@]4(O)C[C@@H](C(F)(F)F)N(C)C4=O)on3)c(F)cc2F)nc2c(N)ncnc12` [Example 115, (3R,5S)-3-(3-(5-(4-Amino-8-methoxypyrido[3,2-d]pyrimidin-6-yl)-2,4-difluorophenyl)isoxazol-5-yl)-3-hydroxy-1-methyl-5-(trifluoromethyl)pyrrolidin-2-one], for which the IC50 in assay [1] and in assay [2] was more than 0.501 µM throughout.

Regarding `COc1cc(-c2cc(-c3cc([C@]4(O)C[C@@H](C(F)(F)F)N(C)C4=O)on3)ccc2F)nc2c(N)ncnc12` [Example 116, (3R,5S)-3-(3-(3-(4-amino-8-methoxypyrido[3,2-d]pyrimidin-6-yl)-4-fluorophenyl)isoxazol-5-yl)-3-hydroxy-1-methyl-5-(trifluoromethyl)pyrrolidin-2-one], the results for the IC50 in assay [1] and in assay [2] were more than 0.501 µM and less than 0.1 µM, respectively.

In the case of `CN1CC[C@@](O)(c2cc(-c3cccc(-c4cc(C5CC5)cc(C(N)=O)n4)c3)no2)C1=O` [Example 117, (R)-4-Cyclopropyl-6-(3-(5-(3-hydroxy-1-methyl-2-oxopyrrolidin-3-yl)isoxazol-3-yl)phenyl)picolinamide], the IC50 in assay [1] was 0.1 to 0.5 µM; in assay [2] it was less than 0.1 µM.

Take `COc1cc(-c2cccc(-c3cc([C@]4(O)CCN(C)C4=O)on3)c2)nc2c(N)ncnc12` [Example 118, (R)-3-(3-(3-(4-Amino-8-methoxypyrido[3,2-d]pyrimidin-6-yl)phenyl)isoxazol-5-yl)-3-hydroxy-1-methylpyrrolidin-2-one]: the IC50 in assay [1] was 0.1 to 0.5 µM; in assay [2] it was less than 0.1 µM.

`COc1cc(-c2cc(-c3cc([C@@]4(O)C(=O)N(C)CC4(F)F)on3)ccc2F)nc2c(N)ncnc12` [Example 119, (R)-3-(3-(3-(4-Amino-8-methoxypyrido[3,2-d]pyrimidin-6-yl)-4-fluorophenyl)isoxazol-5-yl)-4,4-difluoro-3-hydroxy-1-methylpyrrolidin-2-one]: the values for the 50% inhibitory concentration (IC50) in assay [1] and in assay [2] were 0.1 to 0.5 µM and less than 0.1 µM, respectively.

Consider `COc1cc(-c2cc(-c3cc([C@]4(O)CCN(C)C4=O)on3)ccc2F)nc2c(N)ncnc12` [Example 120, (R)-3-(3-(3-(4-Amino-8-methoxypyrido[3,2-d]pyrimidin-6-yl)-4-fluorophenyl)isoxazol-5-yl)-3-hydroxy-1-methylpyrrolidin-2-one], for which the 50% inhibitory concentration (IC50) in assay [1] is more than 0.501 µM; in assay [2] it was less than 0.1 µM.

Turning to `CN1CC[C@@](O)(c2cc(-c3ccc(F)c(-c4ncc(NC5COC5)c(C(N)=O)n4)c3)no2)C1=O` [Example 121, (R)-2-(2-Fluoro-5-(5-(3-hydroxy-1-methyl-2-oxopyrrolidin-3-yl)isoxazol-3-yl)phenyl)-5-(oxetan-3-ylamino)pyrimidine-4-carboxamide], the results for the IC50 in assay [1] and in assay [2] were 0.1 to 0.5 µM and less than 0.1 µM, respectively.

`Cc1c(-c2cccc(-c3cc([C@]4(O)CCN(C)C4=O)on3)c2)nc(C(N)=O)n1C1CC1` [Example 122, (R)-1-Cyclopropyl-4-(3-(5-(3-hydroxy-1-methyl-2-oxopyrrolidin-3-yl)isoxazol-3-yl)phenyl)-5-methyl-1H-imidazole-2-carboxamide]: the IC50 is more than 0.501 µM in assay [1] and 0.1 to 0.5 µM in assay [2].

In the case of `Cc1nc(-c2cc(-c3cc([C@@]4(O)C(=O)N(C)CC4(F)F)on3)cc(F)c2F)nc2c(N)ncnc12` [Example 123, (R)-3-(3-(3-(8-amino-4-methylpyrimido[5,4-d]pyrimidin-2-yl)-4,5-difluorophenyl)isoxazol-5-yl)-4,4-difluoro-3-hydroxy-1-methylpyrrolidin-2-one], the IC50 was 0.1 to 0.5 µM in assay [1] and less than 0.1 µM in assay [2].

Take `CN1CC[C@@](O)(c2cc(-c3cccc(-c4cc5c(c(C(N)=O)n4)CCCC5)c3)no2)C1=O` [Example 124, (R)-3-(3-(5-(3-Hydroxy-1-methyl-2-oxopyrrolidin-3-yl)isoxazol-3-yl)phenyl)-5,6,7,8-tetrahydroisoquinoline-1-carboxamide]: the values for the IC50 in assay [1] and in assay [2] were more than 0.501 µM and less than 0.1 µM, respectively.

As to `CN1CC[C@@](O)(c2cc(-c3cccc(-c4nc5c(c(C(N)=O)n4)CCCC5)c3)no2)C1=O` [Example 125, (R)-2-(3-(5-(3-Hydroxy-1-methyl-2-oxopyrrolidin-3-yl)isoxazol-3-yl)phenyl)-5,6,7,8-tetrahydroquinazoline-4-carboxamide], the IC50 in assay [1] is more than 0.501 µM; in assay [2] it was less than 0.1 µM.

In the case of `CN1CC[C@@](O)(c2cc(-c3cccc(-c4ncc(N)c(C(=O)N[C@H]5CCOC5)n4)c3)no2)C1=O` [Example 126, 5-Amino-2-(3-(5-((R)-3-hydroxy-1-methyl-2-oxopyrrolidin-3-yl)isoxazol-3-yl)phenyl)-N—((S)-tetrahydrofuran-3-yl)pyrimidine-4-carboxamide], the IC50 is more than 0.501 µM in assay [1] and less than 0.1 µM in assay [2].

Take `CN1CC[C@@](O)(c2cc(-c3cccc(-c4ncc(N[C@H]5CCOC5)c(C(N)=O)n4)c3)no2)C1=O` [Example 127, 2-(3-(5-((R)-3-hydroxy-1-methyl-2-oxopyrrolidin-3-yl)isoxazol-3-yl)phenyl)-5-(((S)-tetrahydrofuran-3-yl)amino)pyrimidine-4-carboxamide]: the IC50 in assay [1] and in assay [2] was less than 0.1 µM each time.

On to `CN1CC[C@@](O)(c2cc(-c3cccc(-c4ncc(N)c(C(=O)N[C@@H]5CCOC5)n4)c3)no2)C1=O` [Example 128, 5-Amino-2-(3-(5-((R)-3-hydroxy-1-methyl-2-oxopyrrolidin-3-yl)isoxazol-3-yl)phenyl)-N—((R)-tetrahydrofuran-3-yl)pyrimidine-4-carboxamide], for which the results for the IC50 in assay [1] and in assay [2] were more than 0.501 µM and less than 0.1 µM, respectively.

Regarding `CN1CC[C@@](O)(c2cc(-c3cccc(-c4ncc(N[C@@H]5CCOC5)c(C(N)=O)n4)c3)no2)C1=O` [Example 129, 2-(3-(5-((R)-3-hydroxy-1-methyl-2-oxopyrrolidin-3-yl)isoxazol-3-yl)phenyl)-5-(((R)-tetrahydrofuran-3-yl)amino)pyrimidine-4-carboxamide], the IC50 in assay [1] and in assay [2] was less than 0.1 µM each time.

Regarding `CN1CC[C@@](O)(c2cc(-c3cccc(-c4ncc(Nc5ccn(C)n5)c(C(N)=O)n4)c3)no2)C1=O` [Example 130, (R)-2-(3-(5-(3-Hydroxy-1-methyl-2-oxopyrrolidin-3-yl)isoxazol-3-yl)phenyl)-5-((1-methyl-1H-pyrazol-3-yl)amino)pyrimidine-4-carboxamide], the half-inhibitory concentration (IC50) in assay [1] and in assay [2] was less than 0.1 µM throughout.

Take `CN1CC[C@@](O)(c2cc(-c3cccc(-c4cc(N[C@H]5CCOC5)cc(C(N)=O)n4)c3)no2)C1=O` [Example 131, 6-(3-(5-((R)-3-Hydroxy-1-methyl-2-oxopyrrolidin-3-yl)isoxazol-3-yl)phenyl)-4-(((S)-tetrahydrofuran-3-yl)amino)picolinamide]: the IC50 in assay [1] and in assay [2] was more than 0.501 µM throughout.

As to `CN1CC[C@@](O)(c2cc(-c3cccc(-c4nc(C(N)=O)c(N)c(C5CC5)n4)c3)no2)C1=O` [Example 132, (R)-5-Amino-6-cyclopropyl-2-(3-(5-(3-hydroxy-1-methyl-2-oxopyrrolidin-3-yl)isoxazol-3-yl)phenyl)pyrimidine-4-carboxamide], the IC50 in assay [1] and in assay [2] was less than 0.1 µM in each case.

Consider `CN1CC[C@@](O)(c2cc(-c3cccc(-c4nc(Nc5ccn(C)n5)c(C(F)(F)F)c(C(N)=O)n4)c3)no2)C1=O` [Example 133, (R)-2-(3-(5-(3-Hydroxy-1-methyl-2-oxopyrrolidin-3-yl)isoxazol-3-yl)phenyl)-6-((1-methyl-1H-pyrazol-3-yl)amino)-5-(trifluoromethyl)pyrimidine-4-carboxamide], for which the IC50 in assay [1] was more than 0.501 µM; in assay [2] it was less than 0.1 µM.

As to `CN1CC[C@@](O)(c2cc(-c3cccc(-c4nc(C(N)=O)c5[nH]ccc5n4)c3)no2)C1=O` [Example 134, (R)-2-(3-(5-(3-Hydroxy-1-methyl-2-oxopyrrolidin-3-yl)isoxazol-3-yl)phenyl)-5H-pyrrolo[3,2-d]pyrimidine-4-carboxamide], the IC50 in assay [1] and in assay [2] was less than 0.1 µM in each case.

For the molecule `CN1CC[C@@](O)(c2cc(-c3cccc(-c4ncc(N)c(C(N)=O)n4)c3)no2)C1=O` [Example 135, (R)-5-Amino-2-(3-(5-(3-Hydroxy-1-methyl-2-oxopyrrolidin-3-yl)isoxazol-3-yl)phenyl)pyrimidine-4-carboxamide], the half-maximal inhibitory concentration (IC50) in assay [1] and in assay [2] was less than 0.1 µM in each case.

`COc1nc(-c2cccc(-c3cc([C@]4(O)CCN(C)C4=O)on3)c2)nc(OC)c1N` [Example 136, (R)-3-(3-(3-(5-Amino-4,6-dimethoxypyrimidin-2-yl)phenyl)isoxazol-5-yl)-3-hydroxy-1-methylpyrrolidin-2-one]: the IC50 in assay [1] is more than 0.501 µM; in assay [2], 0.1 to 0.5 µM.

(Values after patent publication US20250282785A1, “PYRROLIDINONE DERIVATIVES AS INHIBITORS OF NF KAPPA B INDUCING KINASE” (priority 2022, published 2025).)
